Legend:
Protein kinase C (PKC) = test: Inhibition of Protein kinase C (PKC) activity, Enzyme assay done using gamma-[32P]ATP and synthetic peptide substrates; parameters: species or system Rattus norvegicus
MAP kinase p38 = MAP kinase p38 (Homo sapiens, UniProt O15264+Q15759+Q16539+P53778); test: Inhibition of p38 Mitogen-activated protein kinase; format: protein assay
[1] = target: cAMP-dependent protein kinase A (Bos taurus, UniProt P00515+P00517+P05131+P31322); test: Inhibition of Protein kinase A (PKA) activity, Enzyme assay was done using gamma-[32P]ATP and synthetic peptide substrates; format: protein-complex assay
[2] = target: Myosin light chain kinase, smooth muscle (Gallus gallus, UniProt P11799); test: Inhibition of Myosin Light Chain kinase (MLCK)
Sequence of Myosin light chain kinase, smooth muscle (P11799 whole entry): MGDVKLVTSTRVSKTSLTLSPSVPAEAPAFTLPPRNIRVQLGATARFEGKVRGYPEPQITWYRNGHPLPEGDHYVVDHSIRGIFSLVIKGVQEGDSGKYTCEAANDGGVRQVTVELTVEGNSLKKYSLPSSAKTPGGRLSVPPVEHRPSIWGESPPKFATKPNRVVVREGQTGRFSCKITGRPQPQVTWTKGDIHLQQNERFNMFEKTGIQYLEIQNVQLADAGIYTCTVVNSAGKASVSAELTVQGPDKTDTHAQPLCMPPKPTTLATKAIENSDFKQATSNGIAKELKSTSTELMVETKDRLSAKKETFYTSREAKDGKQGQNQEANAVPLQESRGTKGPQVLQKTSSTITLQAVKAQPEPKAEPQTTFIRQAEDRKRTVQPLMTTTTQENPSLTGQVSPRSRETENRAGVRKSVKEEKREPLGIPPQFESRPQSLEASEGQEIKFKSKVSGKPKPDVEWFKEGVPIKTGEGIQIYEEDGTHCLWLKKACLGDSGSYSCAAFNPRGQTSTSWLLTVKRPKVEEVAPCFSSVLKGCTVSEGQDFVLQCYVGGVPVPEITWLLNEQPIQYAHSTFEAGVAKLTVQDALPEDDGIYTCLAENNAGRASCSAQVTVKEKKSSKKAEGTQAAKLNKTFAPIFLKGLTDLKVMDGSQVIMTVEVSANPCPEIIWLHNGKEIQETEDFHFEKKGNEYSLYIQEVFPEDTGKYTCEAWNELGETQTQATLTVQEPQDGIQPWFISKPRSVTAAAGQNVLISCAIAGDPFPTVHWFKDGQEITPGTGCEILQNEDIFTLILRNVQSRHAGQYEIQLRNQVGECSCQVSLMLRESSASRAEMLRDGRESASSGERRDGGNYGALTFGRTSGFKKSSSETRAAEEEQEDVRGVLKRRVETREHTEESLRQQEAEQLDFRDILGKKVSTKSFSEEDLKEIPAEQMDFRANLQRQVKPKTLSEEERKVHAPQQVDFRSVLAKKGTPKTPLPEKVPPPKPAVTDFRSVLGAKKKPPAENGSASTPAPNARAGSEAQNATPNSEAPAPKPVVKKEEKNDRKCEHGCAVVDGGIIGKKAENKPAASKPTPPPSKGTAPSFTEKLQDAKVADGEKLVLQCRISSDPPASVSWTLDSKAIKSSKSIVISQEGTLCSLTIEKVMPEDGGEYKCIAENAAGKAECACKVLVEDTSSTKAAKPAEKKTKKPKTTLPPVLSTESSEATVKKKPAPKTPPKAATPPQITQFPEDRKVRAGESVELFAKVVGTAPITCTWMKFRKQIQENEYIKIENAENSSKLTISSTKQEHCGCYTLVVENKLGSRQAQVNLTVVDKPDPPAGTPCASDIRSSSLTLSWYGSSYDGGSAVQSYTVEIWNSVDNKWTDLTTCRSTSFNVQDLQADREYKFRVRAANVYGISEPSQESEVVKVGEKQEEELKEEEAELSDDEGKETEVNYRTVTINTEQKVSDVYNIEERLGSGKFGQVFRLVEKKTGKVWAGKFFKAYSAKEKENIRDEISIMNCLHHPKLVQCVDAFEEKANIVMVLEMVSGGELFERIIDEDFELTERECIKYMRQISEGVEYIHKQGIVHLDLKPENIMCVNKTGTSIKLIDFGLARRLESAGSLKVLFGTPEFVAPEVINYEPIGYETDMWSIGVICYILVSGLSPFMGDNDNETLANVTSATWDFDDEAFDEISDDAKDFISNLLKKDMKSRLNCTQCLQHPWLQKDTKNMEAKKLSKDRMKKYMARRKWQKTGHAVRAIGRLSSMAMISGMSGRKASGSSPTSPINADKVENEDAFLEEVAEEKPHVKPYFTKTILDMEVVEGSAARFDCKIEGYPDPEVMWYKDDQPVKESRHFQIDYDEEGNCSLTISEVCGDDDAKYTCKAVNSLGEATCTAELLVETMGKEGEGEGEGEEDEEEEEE

[3] = target: Ca2+/calmodulin-dependent protein kinase II (CaM kinase II) (Rattus norvegicus, UniProt P11275+P08413+P15791+P11730); test: Inhibition of Calcium/calmodulin-dependent protein kinase type II (CaMKII) activity; format: protein assay

IC50 (Protein kinase C (PKC))	IC50 (MAP kinase p38)	IC50 [1]	IC50 [2]	IC50 [3]	Structure (SMILES)
> 100 µM	> 100 µM	> 100 µM	> 100 µM	9.7 µM	N=c1cc2c(nn1CCCCCCCCCCC(=O)N1CCN(c3ncccn3)CC1)-c1ccccc1CC2
> 100 µM	> 100 µM	> 100 µM		8.4 µM	COc1ccc(S(=O)(=O)N(CCO)c2ccccc2CN(C)C/C=C/c2ccc(Cl)cc2)cc1

Source: ChEMBL document CHEMBL1135701, “Discovery of a 3-amino-6-phenyl-pyridazine derivative as a new synthetic antineuroinflammatory compound” (J Med Chem, 2002)
